Data published in US20080235828A1 (University of Manitoba, priority 2004, published 2008).
“Also recorded” adds a separate entry of the source.

Tests used:
ABAP1 = ABAP1 (Hordeum vulgare, UniProt Q9LLX3); assay: ABA binding assay with purified recombinant ABAP1; set-up: species or system barley; conditions: analogs/precursors added at the same time as 3H+-ABA at different concentrations (20-5000)
Method: Other additions or changes to the incubation system are discussed in the figure legends. All binding assays were carried out at a final volume of 150 μL at 4° C. for 1 hour. The mixture was then rapidly filtered through a nitrocellulose membrane, washed with 5 mL, of cold 0.5× binding buffer by rapid filtration, dried in air and counted in a scintillation counter (Wallac 1414 WinSpectral v1.40). […] The DCC binding mixture was maintained for 15 minutes on ice before centrifugation to precipitate DCC. The resulted supernatant was then counted in a scintillation counter to determine the binding activity. […] Heat denatured ABAP1 protein was used to determine the protein nature of the ABAP1 and BSA was used as a control. All binding studies were carried out using three different protein purifications with triplicate assays for each purification. […] Binding was represented as the number of moles of ^3H^+-ABA per mole of ABAP1 protein.

em promoter = em promoter driven GUS expression in bombarded barley aleurone layers; assay type: cell-based; conditions: in the presence of the added substance
Text: The studies examined the effector and reporter constructs, at a 1:1 ratio, introduced to barley aleurone layers by gold particle bombardment. The bombardment consisted of two trials: the first trial was a bombardment of em promoter only; the second trial was a bombardment of em promoters treated with ABAP1.

α-amylase activity = α-amylase activity in bombarded barley aleurones; assay type: cell-based; conditions: em and ABAP1 bombarded aleurones
Method: A similar experiment was conducted with α-amylase activity to confirm if ABAP1 is involved in another signal transduction pathway. α-amylase activity was measured after ABA, PBI51 and GA were added to the em and ADAPT bombarded barley aleurones.

FCA protein = biological target: T1, FCA protein (Arabidopsis thaliana, UniProt O04425); assay: ABA binding assay with purified recombinant FCA; set-up: Kd; other: analog added in higher concentrations than 3H+-ABA (20-5000 nM); other: Scatchard analysis, r^2=0.88; other: in presence of 5 μM unlabelled (+)-ABA; pH range of maximum; fused on or other part: GST fused on for purification; conditions: analog added in higher concentrations than 3H+-ABA (20-5000 nM)
T1 sequence (O04425 1-747 isoform O04425-1): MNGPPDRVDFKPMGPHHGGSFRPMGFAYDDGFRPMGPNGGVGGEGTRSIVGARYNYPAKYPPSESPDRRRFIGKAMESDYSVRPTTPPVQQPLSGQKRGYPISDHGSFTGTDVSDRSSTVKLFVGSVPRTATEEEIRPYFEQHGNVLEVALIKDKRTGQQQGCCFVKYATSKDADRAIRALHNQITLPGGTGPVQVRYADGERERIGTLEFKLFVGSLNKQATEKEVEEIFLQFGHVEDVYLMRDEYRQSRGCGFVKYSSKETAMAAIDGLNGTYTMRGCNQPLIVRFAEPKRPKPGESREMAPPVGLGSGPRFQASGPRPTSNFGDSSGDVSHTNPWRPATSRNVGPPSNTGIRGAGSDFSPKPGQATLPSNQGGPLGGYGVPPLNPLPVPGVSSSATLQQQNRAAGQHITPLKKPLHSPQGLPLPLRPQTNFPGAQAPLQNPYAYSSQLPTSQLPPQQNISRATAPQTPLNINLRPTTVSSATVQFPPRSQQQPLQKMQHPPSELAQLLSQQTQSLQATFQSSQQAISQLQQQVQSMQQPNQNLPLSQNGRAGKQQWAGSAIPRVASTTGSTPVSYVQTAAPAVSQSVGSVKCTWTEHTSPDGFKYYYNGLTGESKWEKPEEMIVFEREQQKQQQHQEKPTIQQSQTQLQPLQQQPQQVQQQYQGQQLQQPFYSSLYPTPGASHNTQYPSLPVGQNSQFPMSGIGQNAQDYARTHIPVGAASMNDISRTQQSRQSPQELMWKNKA
Method: […] The mixture was then rapidly filtered through a nitrocellulose membrane, washed with 0.5× binding buffer, air dried and counted in a scintillation counter (Wallac 1414 WinSpectral v1.40). Heat denatured FCA protein was used to used determine the protein nature of the FCA and BSA was used as a control. All binding studies were carried out using three different GST affinity chromatography protein purifications with triplicate assays for each purification. […] Specific binding was calculated by taking the difference for assays with only ^3H^+-ABA (total binding) and assays that also contained 5 μM (±)-ABA added at the same time as ^3H^+-ABA (non-specific binding). Binding was represented as the number of moles of ^3H^+-ABA per mole of FCA protein.

FCA/FY interaction = assay: GST pull-down of FCA/FY interaction in the presence of ABA; assay type: binding, Arabidopsis; conditions: FCA pre-bound with ABA for 30 min
Method: All in vitro translation and GST pull-down assays were carried out as described by supplier's protocols (Promega, Madison, Wis.) with modifications^S and as follows. For GST in vitro pull-down assays, 15 μL GST affinity resin was incubated with 250 μL FCA clear lysate, pelleted and the complex blocked and washed with IP buffer as described^S. For the determination of the amount of FCA bound to GST resin, the pellet was resuspended with 200 μL of 15 mM GSH to elute FCA and the supernatant was recovered by centrifugation. FY protein to be tested for interaction with the GST-FCA fusion protein was synthesized from a plasmid template and labeled with [^35S]-methionine using the T7 TNT coupled Transcription/Translation System (Promega). Twenty μL of FY labeled protein and 180 μL of interaction buffer (12.5 mM Tris-HCl, pH 7.3 containing 5 mM KCl, 1 mM MgCl2, and 100 mM NaCl) were used to resuspend the GST:FCA after the final wash. The protein binding/interaction reaction was carried out for 90 minutes at 4° C. with continuous gentle mixing. The newly formed complex was then washed three times with 500 μL of IP wash buffer. After the final wash, the complex was resuspended, first with 10 μL of 1 5 mM GSH to facilitate the dissociation of interacted proteins from GST resin and then 10 μL of 2×SDS-PAGE sample buffer was added to the mixture and boiled for 5 minutes for complete elution of the proteins from the agarose beads. The beads were pelleted by centrifugation and supernatant was loaded on a 12% SDS-PAGE gel. The gel was dried and exposed to Kodak X-ray film for 18 hours at −70° C. and film was developed for the detection of labelled proteins.
FCA was bound with […] for 30 minutes at which time the FCA/FY translated product was added to the incubation mixture. The interaction between FCA/FY was carried out in the presence of either (−)- or (+)-ABA in binding buffer as described above. Released proteins were separated on SDS-PAGE and labelled proteins were detected as described above. FCA-WW-FY was used as a control.

[1] = ABA binding of ABAP1 trypsin fragments; set-up: species or system barley; conditions: for ABA binding molar ratio / affinity: trypsin fragments compared with full-length ABAP1
Text: It is to be noted that the nucleotide fragment sequence SEQ ID NO: 12 corresponds to nucleotides 350 through 951 of the nucleotide sequence listing set forth in SEQ ID NO: 9, and that the amino acid sequence SEQ ID NO: 11 encoded by the nucleotide fragment sequence SEQ ID NO: 12 corresponds to amino acids 112 though 309 of the ABAP1 protein (SEQ. ID NO: 10). Mutation analysis can be used to determine the specific residues involved in […] binding. Those skilled in these arts will understand that the ABA-binding capacity within a recipient plant tissue or seed can be modulated by constructing a nucleotide molecule by first fusing the T-20 coding sequence (SEQ ID NO: 12) with a suitable regulatory nucleotide sequence selected for over-expression or for under-expression of the T-20 coding sequence, then stably introducing the T-20 nucleotide molecule into the genome of a recipient cell from a seed-producing plant, culturing the recipient cell into a functional whole plant and then further propagating the plant to produce mature recipient seeds. A suitable forward […] for the T-20 coding sequence is set forth in the sequence listing identified as SEQ ID NO: 15. A suitable reverse primer for the T-20 coding sequence is set forth in the sequence listing identified as SEQ ID NO: 16.

Sequence of ABAP1 (Q9LLX3 entry or part of it): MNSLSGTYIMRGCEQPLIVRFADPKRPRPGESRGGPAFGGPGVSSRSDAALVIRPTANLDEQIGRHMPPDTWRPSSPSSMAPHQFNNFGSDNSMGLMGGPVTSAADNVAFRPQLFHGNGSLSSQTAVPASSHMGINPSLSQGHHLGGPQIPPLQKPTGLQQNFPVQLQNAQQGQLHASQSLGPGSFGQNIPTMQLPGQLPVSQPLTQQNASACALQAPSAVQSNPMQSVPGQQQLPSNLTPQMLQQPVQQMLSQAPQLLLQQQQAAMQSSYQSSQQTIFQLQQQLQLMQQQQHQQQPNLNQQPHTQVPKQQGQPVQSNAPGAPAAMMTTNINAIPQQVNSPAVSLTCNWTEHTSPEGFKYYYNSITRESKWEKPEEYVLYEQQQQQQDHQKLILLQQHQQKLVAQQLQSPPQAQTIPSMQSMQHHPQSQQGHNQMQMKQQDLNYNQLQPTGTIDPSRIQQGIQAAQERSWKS

CC1=CC(=O)CC(C)(C)[C@@]1(O)/C=C/C(C)=C\CO [(+) ABA-alcohol]
displacement of 3H+-ABA bound to ABAP1 (competition) (ABAP1): able to displace
displacement of 3H+-ABA bound to ABAP1 (competition) (ABAP1; listed as ABA alcohol): did competitively inhibit binding of ABA to ABAP1 to some extent

CC1=CC(=O)CC(C)(C)[C@@]1(O)/C=C/C(C)=C\C=O [(+) ABA-aldehyde]
displacement of 3H+-ABA bound to ABAP1 (competition) (ABAP1): able to displace
displacement of 3H+-ABA bound to ABAP1 (competition) (ABAP1; listed as ABA aldehyde): did competitively inhibit binding of ABA to ABAP1 to some extent

CC1=CC(=O)CC(C)(C)[C@@]1(O)/C=C/C(C)=C\C(=O)O[C@@H]1O[C@H](CO)[C@@H](O)[C@H](O)[C@H]1O [ABA-GE, (+) abscisic acid-glucose ester]
displacement of 3H+-ABA bound to ABAP1 (competition) (ABAP1): incapability

CC(=C/C(=O)O)/C=C/[C@]1(O)[C@@]2(C)CO[C@]1(C)C[C@@H](O)C2 [DPA, dihydrophaseic acid]
displacement of 3H+-ABA bound to ABAP1 (competition) (ABAP1): incapability

C=C1C[C@]23C[C@@]1(O)CC[C@H]2[C@@]12C=C[C@H](O)[C@@](C)(C(=O)O1)[C@H]2[C@@H]3C(=O)O [GA, gibberellic acid]
activation of the em promoter by ABAP1 (em promoter): reduced
α-amylase activity (α-amylase activity): did not affect any reduction

CC(=C/C(=O)O)/C=C/[C@]1(O)[C@@]2(C)CO[C@]1(C)CC(=O)C2 [PA, phaseic acid]
displacement of 3H+-ABA bound to ABAP1 (competition) (ABAP1): incapability

C/C(C#C[C@]1(O)[C@H](C)CC(=O)CC1(C)C)=C/CO [PBI51]
activation of the em promoter by ABAP1 (em promoter): reduced
α-amylase activity (α-amylase activity): decreased

CC(C=CC1(O)C(C)=CC(=O)CC1(C)C)=CC(=O)O (stereo not drawn) [trans-ABA]
displacement of 3H+-ABA binding to FCA (FCA protein): Virtually no or very little displacement
displacement of 3H+-ABA bound to ABAP1 (competition) (ABAP1): incapability; also recorded: neither (−)-ABA nor trans-ABA compete

(−)-ABA
displacement of 3H+-ABA binding to FCA (FCA protein): Virtually no or very little displacement
inhibition of FCA/FY interaction (FCA/FY interaction): did not significantly inhibit
displacement of 3H+-ABA bound to ABAP1 (competition) (ABAP1): neither (−)-ABA nor trans-ABA compete
displacement of 3H+-ABA bound to ABAP1 (competition) (ABAP1; listed as (−) ABA): incapability

B1: 10 kDa fragment: trypsin fragment of ABAP1 containing HR2 only, SEQ ID NO: 13 (protein)
chain: SAVQSNPMQSVPGQQQLPSNLTPQMLQQPVQQMLSQAPQLLLQQQQAAMQSSYQSSQQTIFQLQQQLQLMQQQQHQQQPNLNQQPHTQVPK
modifications: Hordeum, vulgare subsp. vulgare
ABA-binding affinity relative to 20 kDa fragment and full-length protein [1]: less than 50%
ABA binding molar ratio / affinity [1]: slight binding affinity

B2: 20 kDa fragment: trypsin fragment of ABAP1 with HR1 and HR2 regions, SEQ ID NO: 11 (protein)
chain: PQLFHGNGSLSSQTAVPASSHMGINPSLSQGHHLGGPQIPPLQKPTGLQQNFPVQLQNAQQGQLHASQSLGPGSFGQNIPTMQLPGQLPVSQPLTQQNASACALQAPSAVQSNPMQSVPGQQQLPSNLTPQMLQQPVQQMLSQAPQLLLQQQQAAMQSSYQSSQQTIFQLQQQLQLMQQQQHQQQPNLNQQPHTQVPK
modifications: Hordeum, vulgare subsp. vulgare
ABA binding molar ratio / affinity [1]: about the same molar ratio
